Experimental data reported in patent publication EP4782444A1, “CRYSTAL FORM OF PYRIMIDINE ANILINE COMPOUND, PREPARATION METHOD, AND USE” (TYK Medicines, Inc., priority 2023, dated 2025).
Converted amounts (≈) assume the structure as drawn. Where two headings read alike, the source gives them in different places. Blank lines part the entries; values can stand above or below the molecule they belong to.

Assays:
[1] = Solid-state stability study (HPLC and XRPD analysis); format: physicochemical
[2] = in vivo; settings: rat, po, 30 mg/kg
Experimental: (§1) SD rats received a single oral gavage administration of citrate crystalline form I, mesylate crystalline form I, and free base crystalline form I, respectively. Blood samples were collected at various time points to determine drug concentrations in rat plasma post administration of tested substance and calculate PK-related parameters.
(§2) The prepared test sample solutions were analyzed by the analytical department of the present test facility using LC-MS/MS.
(§3) Animals were fasted (≥10 h) with free access to water from the day before dosing. On the test day, rats were weighed respectively, marked at the tail, and blank blood samples were collected before administration. Blood was collected via tail vein.
(§4) 0.1 mL of whole blood was collected into EDTA-Na2 anticoagulant tubes, inverted 3-4 times to mix well, centrifuged at 10,000 g, 4 °C for 5 min to separate plasma, and stored at - 80 °C until analysis. Blood was collected via tail vein.
(§5) Plasma samples were analyzed by the analytical department of the test facility using LC-MS/MS.

[3] = 37 °C
[4] = Pharmacokinetic study in rats, single oral gavage; settings: SD rats, 30 mpk
Experimental: as §1, §2, §3, §4, §5

[5] = system: EGFR exon 20ins; settings: advanced non-small cell lung cancer; cited from earlier work
[6] = physchem

- Appearance ([1]; 25°C/60%RH, day 3): Unchanged
- Crystalline Form ([1]; 25°C/60%RH, day 3, XRPD): Unchanged
- Purity % ([1]; 25°C/60%RH, day 3, open vial): 98.68%
- Appearance ([1]; 25°C/60%RH, day 7): Unchanged
- Crystalline Form ([1]; 25°C/60%RH, day 7, XRPD): Unchanged
- Purity % ([1]; 25°C/60%RH, day 7, open vial): 98.61%
- Appearance ([1]; 25°C/95±5%RH, day 3): Unchanged
- Crystalline Form ([1]; 25°C/95±5%RH, day 3, XRPD): Unchanged
- Purity % ([1]; 25°C/95±5%RH, day 3, open vial): 98.66%
- Appearance ([1]; 25°C/95±5%RH, day 7): Unchanged
- Crystalline Form ([1]; 25°C/95±5%RH, day 7, XRPD): Unchanged
- Purity % ([1]; 25°C/95±5%RH, day 7, open vial): 98.67%
- Appearance ([1]; 40°C/75%RH, day 3): Unchanged
- Crystalline Form ([1]; 40°C/75%RH, day 3, XRPD): Unchanged
- Purity % ([1]; 40°C/75%RH, day 3, open vial): 98.66%
- Appearance ([1]; 40°C/75%RH, day 7): Unchanged
- Crystalline Form ([1]; 40°C/75%RH, day 7, XRPD): Unchanged
- Purity % ([1]; 40°C/75%RH, day 7, open vial): 98.59%
- Appearance ([1]; 60 °C, day 3): Unchanged
- Crystalline Form ([1]; 60 °C, day 3, XRPD): Unchanged
- Purity % ([1]; 60 °C, day 3, open vial): 98.68%
- Appearance ([1]; 60 °C, day 7): Unchanged
- Crystalline Form ([1]; 60 °C, day 7, XRPD): Unchanged
- Purity % ([1]; 60 °C, day 7, open vial): 98.66%
- Appearance ([1]; 80 °C, day 1): Unchanged
- Crystalline Form ([1]; 80 °C, day 1, XRPD): Unchanged
- Purity % ([1]; 80 °C, day 1, open vial): 98.71%
- Appearance ([1]; 80 °C, day 3): Unchanged
- Crystalline Form ([1]; 80 °C, day 3, XRPD): Unchanged
- Purity % ([1]; 80 °C, day 3, open vial): 98.68%
- Purity % ([1]; day 0 (baseline before storage), mean of 3 parallel experiments): 98.74%
- crystalline form and chemical purity ([1]; under the five storage conditions): did not change significantly
- AUC(0-t) [2]: 1700 ng·h/mL
- Cmax [2]: 126 ng/mL
- Tmax [2]: 5 h
- half-life [2]: 3.01 h
- Solubility ([3]; FaSSIF, 0.5 h, 30 min): >5000 µg/mL
- Solubility ([3]; FaSSIF, 2 h, 120 min): > 5000 µg/mL
- Solubility ([3]; FaSSIF, 24 h, 1440 min): 3990 µg/mL
- Solubility ([3]; FeSSIF, 0.5 h, 30 min): > 5020 µg/mL
- Solubility ([3]; FeSSIF, 2 h, 120 min): > 5020 µg/mL
- Solubility ([3]; FeSSIF, 24 h, 1440 min): > 5020 µg/mL
- Solubility ([3]; H2O, 0.5 h, 30 min): 1910 µg/mL
- Solubility ([3]; H2O, 2 h, 120 min): 1990 µg/mL
- Solubility ([3]; H2O, 24 h, 1440 min): 2440 µg/mL
- Solubility ([3]; SGF, 0.5 h, 30 min): > 5040 µg/mL
- Solubility ([3]; SGF, 2 h, 120 min): > 5040 µg/mL
- Solubility ([3]; SGF, 24 h, 1440 min): > 5040 µg/mL
- in vivo exposure in rats compared with free base crystalline form I [4]: higher
Compound: C=CC(=O)Nc1cc(Nc2ncc(C(=O)OC(C)C)c(-c3cn(C)c4ccccc34)n2)c(OC)cc1N(C)[C@@H]1[C@@H]2CN(C)C[C@@H]21 [Citrate crystalline form I]

Compound: C=CC(=O)Nc1cc(Nc2nccc(Nc3cc(Cl)c(F)cc3C(C)(C)O)n2)c(OC)cc1N1CC[C@@H](N(C)C)C1 [DZD9008]
- objective response rate [5]: 40%

- Solubility ([3]; FaSSIF, 0.5 h, 30 min): 130 µg/mL (≈ 0.213 mM)
- Solubility ([3]; FaSSIF, 2 h, 120 min): 130 µg/mL (≈ 0.213 mM)
- Solubility ([3]; FaSSIF, 24 h, 1440 min): 180 µg/mL (≈ 0.295 mM)
- Solubility ([3]; FeSSIF, 0.5 h, 30 min): 3530 µg/mL (≈ 5.79 mM)
- Solubility ([3]; FeSSIF, 2 h, 120 min): > 5020 µg/mL
- Solubility ([3]; FeSSIF, 24 h, 1440 min): > 5020 µg/mL
- Solubility ([3]; H2O, 0.5 h, 30 min): 10 µg/mL (≈ 0.0164 mM)
- Solubility ([3]; H2O, 2 h, 120 min): 10 µg/mL (≈ 0.0164 mM)
- Solubility ([3]; H2O, 24 h, 1440 min): 10 µg/mL (≈ 0.0164 mM)
- Solubility ([3]; SGF, 0.5 h, 30 min): >5000 µg/mL
- Solubility ([3]; SGF, 2 h, 120 min): > 5000 µg/mL
- Solubility ([3]; SGF, 24 h, 1440 min): > 5000 µg/mL
- Solubility ([6]; 1,4-dioxane): < 270 µg/mL
- Solubility ([6]; acetone): 2220 to 4440 µg/mL (≈ 3.64 to 7.28 mM)
- Solubility ([6]; acetonitrile): 930 to 1010 µg/mL (≈ 1.53 to 1.66 mM)
- Solubility ([6]; cyclohexane): < 330 µg/mL
- Solubility ([6]; dce): 61800 to 124000 µg/mL (≈ 101 to 203 mM)
- Solubility ([6]; dcm): > 107000 µg/mL
- Solubility ([6]; dmso): 2600 to 2930 µg/mL (≈ 4.26 to 4.81 mM)
- Solubility ([6]; ethanol): < 300 µg/mL
- Solubility ([6]; ethyl acetate): < 290 µg/mL
- Solubility ([6]; heptane): < 300 µg/mL
- Solubility ([6]; ipac): < 300 µg/mL
- Solubility ([6]; isopropanol): < 350 µg/mL
- Solubility ([6]; mek): 2780 to 4440 µg/mL (≈ 4.56 to 7.28 mM)
- Solubility ([6]; meoh): < 400 µg/mL
- Solubility ([6]; mtbe): < 330 µg/mL
- Solubility ([6]; nmp): 18200 to 27400 µg/mL (≈ 29.9 to 44.9 mM)
- Solubility ([6]; thf): 2550 to 3190 µg/mL (≈ 4.18 to 5.23 mM)
- Solubility ([6]; water): < 270 µg/mL
- AUC0-last ([4]; plasma, 30 mg/kg): 1122.05 ng·h/mL
- Cmax ([4]; plasma, 30 mg/kg): 126.5 ng/mL
- T1/2 ([4]; plasma, 30 mg/kg): 2.19 h
- Tmax ([4]; plasma, 30 mg/kg): 4 h
Compound: C=CC(=O)Nc1cc(Nc2ncc(C(=O)OC(C)C)c(-c3cn(C)c4ccccc34)n2)c(OC)cc1N(C)[C@@H]1[C@@H]2CN(C)C[C@@H]21 [Free base crystalline form I]
